Data from patent publication US7427608B2, “Protection against and treatment of hearing loss” (The Research Foundation of State University of New York, priority 2001, dated 2008).
Where two headings read alike, the source gives them in different places.

Tests used:
[1] = target: Epidermal Growth Factor Receptor Tyrosine Kinase (EGFRTK) (Homo sapiens, UniProt P00533); experiment: Inhibition of EGFRTK; assay type: biochemical; settings: compound at 10 micromolar
From the text: (§1) Blanks for a particular enzyme indicate that inhibition was not found.

[2] = target: p55 fyn (Homo sapiens, UniProt P06241); experiment: Inhibition of p55 fyn; assay type: biochemical; settings: compound at 10 micromolar
p55 fyn, sequence (P06241 whole entry): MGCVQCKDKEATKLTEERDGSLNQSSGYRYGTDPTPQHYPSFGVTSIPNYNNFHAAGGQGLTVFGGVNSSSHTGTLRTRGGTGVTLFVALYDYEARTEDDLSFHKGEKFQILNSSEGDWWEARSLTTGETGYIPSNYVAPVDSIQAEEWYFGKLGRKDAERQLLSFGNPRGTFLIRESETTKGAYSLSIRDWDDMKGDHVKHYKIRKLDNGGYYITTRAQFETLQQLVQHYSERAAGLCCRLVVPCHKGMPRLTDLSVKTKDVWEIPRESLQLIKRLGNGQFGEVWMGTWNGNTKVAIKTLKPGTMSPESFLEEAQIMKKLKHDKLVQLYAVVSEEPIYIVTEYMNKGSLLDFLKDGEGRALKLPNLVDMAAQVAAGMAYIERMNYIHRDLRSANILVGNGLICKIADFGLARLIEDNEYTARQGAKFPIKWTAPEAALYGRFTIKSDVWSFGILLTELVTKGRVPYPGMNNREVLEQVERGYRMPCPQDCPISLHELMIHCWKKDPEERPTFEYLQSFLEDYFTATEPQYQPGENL
From the text: as §1

[3] = test system: ovarian tumor cells (tumor N015) and abdominal carcinoma from patients; experiment: Patient tumor cell culture, comparison with cancer drugs; assay type: cell-based, human
From the text: The initial non-peptide Src inhibitors have also shown very encouraging results in four different series of cell culture assays. 1) In the NIH 60-tumor cell panel assay, broad activity (as one would expect for a Src inhibitor) was seen against the tumor cell lines, including the prostate lines. […] 3) The Src inhibitors were compared to the cancer drugs etoposide, taxol, doxorubicin, and cisplatin in ovarian tumors from three different patients and an abdominal carcinoma from another patient. […] 5) Two of the Src inhibitors were also tested for inhibition of ts v-Src stimulated LA25 cell growth. […] 6) Two of the Src inhibitors were also tested for inhibition of normal rat kidney cell growth.

[4] = test system: human lung cancer cell line H460; experiment: Inhibition of growth of human lung cancer cell line H460; assay type: cell-based; settings: NCI-H460, 72 hours, total protein/well
From the text: The results are in Table 2, below.

[5] = target: T1, protein tyrosine phosphatase 1B (PTP-1B) (Homo sapiens, UniProt P18031); experiment: Inhibition of PTP-1B; assay type: biochemical; settings: compound at 10 micromolar
T1 sequence (P18031 1-435): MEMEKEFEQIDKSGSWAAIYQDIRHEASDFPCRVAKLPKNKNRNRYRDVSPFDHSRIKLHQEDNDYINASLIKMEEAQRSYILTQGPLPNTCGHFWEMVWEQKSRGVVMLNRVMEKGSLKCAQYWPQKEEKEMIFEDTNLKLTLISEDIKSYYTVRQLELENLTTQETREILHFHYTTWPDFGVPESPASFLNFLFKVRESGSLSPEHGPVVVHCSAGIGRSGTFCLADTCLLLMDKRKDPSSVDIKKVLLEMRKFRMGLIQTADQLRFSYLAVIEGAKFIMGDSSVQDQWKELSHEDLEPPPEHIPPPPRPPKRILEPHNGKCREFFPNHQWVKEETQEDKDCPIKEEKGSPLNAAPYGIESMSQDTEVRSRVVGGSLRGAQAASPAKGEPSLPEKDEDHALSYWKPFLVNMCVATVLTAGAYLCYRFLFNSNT
From the text: as §1

[6] = target: p56 lck (Homo sapiens, UniProt P06239); experiment: Inhibition of p56 lck; assay type: biochemical; settings: compound at 10 micromolar
p56 lck, sequence (P06239 whole entry, species assumed): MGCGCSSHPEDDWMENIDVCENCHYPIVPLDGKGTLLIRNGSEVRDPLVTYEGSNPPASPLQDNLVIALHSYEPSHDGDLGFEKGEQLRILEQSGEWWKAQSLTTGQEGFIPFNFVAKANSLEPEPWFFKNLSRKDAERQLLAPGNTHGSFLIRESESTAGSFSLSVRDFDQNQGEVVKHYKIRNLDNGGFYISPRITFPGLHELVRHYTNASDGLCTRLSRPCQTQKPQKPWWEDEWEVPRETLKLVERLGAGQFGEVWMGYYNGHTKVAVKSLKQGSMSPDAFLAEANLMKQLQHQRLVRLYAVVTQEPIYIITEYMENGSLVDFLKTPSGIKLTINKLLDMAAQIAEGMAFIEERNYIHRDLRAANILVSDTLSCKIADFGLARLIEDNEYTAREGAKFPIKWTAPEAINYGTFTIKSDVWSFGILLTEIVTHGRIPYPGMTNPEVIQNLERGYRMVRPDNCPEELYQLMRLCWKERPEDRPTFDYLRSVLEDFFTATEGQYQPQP
From the text: as §1

[7] = target: full length human purified recombinant pp60^c-src (Homo sapiens, UniProt P12931); experiment: Inhibition of isolated Src (Lai et al. 1998 assay, intracellular-mimetic conditions); assay type: biochemical
full length human purified recombinant pp60^c-src, sequence (P12931 whole entry): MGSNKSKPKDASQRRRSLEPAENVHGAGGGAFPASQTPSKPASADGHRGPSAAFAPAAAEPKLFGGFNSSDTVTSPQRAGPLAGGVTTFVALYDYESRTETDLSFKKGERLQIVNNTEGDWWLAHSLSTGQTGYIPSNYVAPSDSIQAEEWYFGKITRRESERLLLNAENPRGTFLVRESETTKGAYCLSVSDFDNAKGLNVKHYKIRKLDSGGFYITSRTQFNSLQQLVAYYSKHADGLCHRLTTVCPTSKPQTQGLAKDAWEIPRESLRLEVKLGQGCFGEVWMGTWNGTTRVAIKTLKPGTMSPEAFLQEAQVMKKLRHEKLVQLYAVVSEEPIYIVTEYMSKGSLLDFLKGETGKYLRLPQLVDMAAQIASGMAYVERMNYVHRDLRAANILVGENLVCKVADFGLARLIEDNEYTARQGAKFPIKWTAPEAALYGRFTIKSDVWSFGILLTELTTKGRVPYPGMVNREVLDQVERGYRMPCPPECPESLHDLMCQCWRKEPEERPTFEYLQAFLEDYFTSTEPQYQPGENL

[8] = mouse, in vivo, ip

Epidermal Growth Factor Receptor Tyrosine Kinase (EGFRTK), sequence (P00533 25-1210): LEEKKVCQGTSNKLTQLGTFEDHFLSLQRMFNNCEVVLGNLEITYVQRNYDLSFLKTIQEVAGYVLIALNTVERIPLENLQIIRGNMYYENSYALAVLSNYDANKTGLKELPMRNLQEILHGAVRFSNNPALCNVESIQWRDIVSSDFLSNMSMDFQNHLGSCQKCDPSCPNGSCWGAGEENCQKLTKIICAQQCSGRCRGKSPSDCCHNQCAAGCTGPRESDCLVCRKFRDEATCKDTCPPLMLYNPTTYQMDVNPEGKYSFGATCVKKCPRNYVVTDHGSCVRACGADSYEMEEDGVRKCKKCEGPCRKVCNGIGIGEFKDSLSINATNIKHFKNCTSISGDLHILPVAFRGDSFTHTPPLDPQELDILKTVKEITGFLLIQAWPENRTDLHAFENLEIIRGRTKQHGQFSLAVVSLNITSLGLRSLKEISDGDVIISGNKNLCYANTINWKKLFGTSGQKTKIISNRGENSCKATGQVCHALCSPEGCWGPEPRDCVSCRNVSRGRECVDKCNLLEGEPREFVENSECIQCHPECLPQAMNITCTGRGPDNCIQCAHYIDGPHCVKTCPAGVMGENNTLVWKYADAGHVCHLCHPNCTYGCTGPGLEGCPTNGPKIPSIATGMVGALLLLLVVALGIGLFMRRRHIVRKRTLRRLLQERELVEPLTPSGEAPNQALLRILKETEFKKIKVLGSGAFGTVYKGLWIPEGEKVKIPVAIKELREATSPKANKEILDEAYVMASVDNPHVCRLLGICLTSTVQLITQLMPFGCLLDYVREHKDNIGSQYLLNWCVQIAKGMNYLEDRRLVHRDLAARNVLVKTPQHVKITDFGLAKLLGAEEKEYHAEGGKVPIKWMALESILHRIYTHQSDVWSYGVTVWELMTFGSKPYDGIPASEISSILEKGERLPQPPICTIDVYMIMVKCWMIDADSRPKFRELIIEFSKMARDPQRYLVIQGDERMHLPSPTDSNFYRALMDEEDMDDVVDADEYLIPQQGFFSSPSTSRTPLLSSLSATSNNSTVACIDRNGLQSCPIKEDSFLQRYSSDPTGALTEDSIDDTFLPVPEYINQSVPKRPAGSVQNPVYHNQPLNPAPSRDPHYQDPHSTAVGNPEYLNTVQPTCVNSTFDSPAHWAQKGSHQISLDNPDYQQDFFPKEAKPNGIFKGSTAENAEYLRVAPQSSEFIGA

Row | SMILES | inhibition at 10 µM [1] [%] | inhibition at 10 µM [2] [%] | other results
1 | CCCOc1ccc(CNC(=O)c2cc3cc(F)ccc3[nH]2)cc1O [Compound 1nnnn] | 17 | 11 | –
2 | CC(=O)O[C@H]1C(=O)[C@@]2(C)[C@H]([C@H](OC(=O)c3ccccc3)[C@]3(O)C[C@H](OC(=O)[C@H](O)[C@@H](NC(=O)c4ccccc4)c4ccccc4)C(C)=C1C3(C)C)[C@]1(OC(C)=O)CO[C@@H]1C[C@@H]2O [taxol] | – | – | efficacy relative to other cancer drugs in tumor cell culture [3]: more effective than etoposide and cisplatin
3 | O=C(N[C@H](c1ccccc1)[C@H](O)c1ccccc1)c1cc2cc(F)ccc2[nH]1 [Compound 1cc] | 19 | – | IC50 [4]: 30 ± 0.66 µM
4 | O=C(Nc1ccccc1CO)c1cc2cc(F)ccc2[nH]1 [Compound 1xxx] | – | – | inhibition at 10 µM [5]: 12%
5 | O=C(Nc1ccc(Oc2ccccc2)cc1)c1cc2cc(F)ccc2[nH]1 [Compound 1k] | – | 13 | –
6 | O=C(NCc1ccc([N+](=O)[O-])cc1)c1cc2cc(F)ccc2[nH]1 [Compound 1mmmm] | – | 29 | –
7 | COc1ccc(NC(=O)c2cc3cc(F)ccc3[nH]2)cc1CO [Compound 1cccc] | 19 | – | IC50 [4]: > 100 µM; inhibition at 10 µM [5]: 20%
8 | COc1cc(CNC(=O)c2cc3cc(F)ccc3[nH]2)ccc1OCc1ccccc1 [Compound 1qqq] | – | 11 | –
9 | O=C(NCc1ccccc1F)c1cc2cc(F)ccc2[nH]1 [Compound 1bbb] | – | – | IC50 [4]: > 100 µM
10 | O=C(NCCCCCCO)c1cc2cc(F)ccc2[nH]1 [Compound 1qqqq] | 18 | – | –
11 | O=C(NCc1ccc(CO)cc1)c1cc2cc(F)ccc2[nH]1 [Compound 1oooo] | 33 | – | inhibition at 10 µM [6]: 10%; IC50 [4]: 74 ± 2.7 µM
12 | O=C(Nc1cc(O)cc(O)c1)c1cc2cc(F)ccc2[nH]1 [Compound 1r] | – | – | inhibition at 10 µM [6]: 11%
13 | O=C(NCCc1c[nH]c2ccccc12)c1cc2cc(F)ccc2[nH]1 [Compound 1u] | – | 10 | –
14 | O=C(NCc1cc(C(F)(F)F)cc(C(F)(F)F)c1)c1[nH]c2ccc(F)cc2c1-c1ccccc1 [Compound 2w] | – | – | inhibition at 10 µM [5]: 12%
15 | O=C(NCc1ccc(Cl)cc1)c1[nH]c2ccc(F)cc2c1-c1ccccc1 [Compound 2gg] | – | – | inhibition at 10 µM [5]: 12%
16 | COc1ccc(CNC(=O)c2cc3cc(F)ccc3[nH]2)cc1 [Compound 1ee] | 16 | – | –
17 | N=c1oc2c(O)cccc2cc1C(=O)Nc1cccc(O)c1 [Iminochromene 9TA, iminochromene 9TA, reference compound] | – | – | % Inhibition at 100 μM (std. dev.) ([7]; Example 3 hydroxynaphthalene series and published inhibitors, 100 μM inhibitor, 198 μM ATP): 30 (+/−15) %
18 | O=C(NCc1cc(F)cc(C(F)(F)F)c1)c1cc2cc(F)ccc2[nH]1 [Compound 1mmm] | – | 14 | –
19 | O=C(NCc1ccc(Cl)cc1Cl)c1cc2cc(F)ccc2[nH]1 [Compound 1ss] | – | – | inhibition at 10 µM [5]: 12%
20 | O=C(NCc1cccc(F)c1)c1cc2cc(F)ccc2[nH]1 [Compound 1z] | 26 | – | IC50 [4]: 15 ± 1.6 µM
21 | O=C(NCc1ccccc1Cl)c1cc2cc(F)ccc2[nH]1 [Compound 1yy] | – | 12 | inhibition at 10 µM [5]: 10%
22 | Cc1cccc(Cl)c1CNC(=O)c1cc2cc(F)ccc2[nH]1 [Compound 1xx] | – | 14 | –
23 | COc1cc(CNC(=O)c2cc3cc(F)ccc3[nH]2)cc(OC)c1 [Compound 1hhhh] | – | – | inhibition at 10 µM [5]: 17%
24 | O=C(NCc1cccc(O)c1)c1[nH]c2ccc(F)cc2c1-c1ccccc1 [Compound 3q] | – | – | IC50 [4]: 30 ± 0.34 µM
25 | O=C(Nc1ccc(CO)cc1)c1cc2cc(F)ccc2[nH]1 [Compound 1oo] | – | 17 | –

Row | SMILES | inhibition at 10 µM [1] [%] | inhibition at 10 µM [2] [%] | other results
26 | O=C(NCc1cccc(I)c1)c1cc2cc(F)ccc2[nH]1 [Compound 1ff] | 24 | – | –
27 | O=C(NCc1cc(C(F)(F)F)ccc1F)c1cc2cc(F)ccc2[nH]1 [Compound 1aaa] | – | – | inhibition at 10 µM [5]: 12%
28 | CCCN(CCC)C(=O)c1cc2cc(F)ccc2[nH]1 [Compound 1g] | – | 19 | –
29 | O=C(NCc1ccccc1)c1cc2cc(F)ccc2[nH]1 [Compound 1bb] | 19 | – | IC50 [4]: 82 ± 3.5 µM
30 | COc1cc(OC)c(CNC(=O)c2cc3cc(F)ccc3[nH]2)c(OC)c1 [Compound 1rr] | – | – | inhibition at 10 µM [6]: 12%
31 | COc1cccc2c1C(=O)c1c(O)c3c(c(O)c1C2=O)C[C@@](O)(C(=O)CO)C[C@@H]3O[C@H]1C[C@H](N)[C@H](O)[C@H](C)O1 [doxorubicin] | – | – | efficacy relative to other cancer drugs in tumor cell culture [3]: more effective than etoposide and cisplatin
32 | COc1cccc([C@H](C)NC(=O)c2cc3cc(F)ccc3[nH]2)c1 [Compound 1aa] | 12 | 10 | –
33 | Cc1cc(C)cc(NC(=O)c2cc3cc(F)ccc3[nH]2)c1 [Compound 1t] | – | 11 | –
34 | O=C(NCc1ccc(F)cc1)c1cc2cc(F)ccc2[nH]1 [Compound 1uuu] | – | 16 | inhibition at 10 µM [5]: 13%
35 | O=C(Nc1cccc(CO)c1)c1cc2cc(F)ccc2[nH]1 [Compound 1yyy] | 11 | – | IC50 [4]: 104 ± 10 µM
36 | O=C(NCc1cccc(F)c1)c1[nH]c2ccc(F)cc2c1-c1ccccc1 [Compound 2g] | – | – | IC50 [4]: 13 ± 0.56 µM
37 | O=C(NCc1ccc(OCc2ccccc2)c(O)c1)c1cc2cc(F)ccc2[nH]1 [Compound 1jjjj] | – | – | inhibition at 10 µM [5]: 15%
38 | O=C(NCc1cccc(C(F)(F)F)c1)c1cc2cc(F)ccc2[nH]1 [Compound 1jj] | – | 18 | –
39 | O=C(Nc1ccccc1O)c1cc2cc(F)ccc2[nH]1 [Compound 1n] | – | – | inhibition at 10 µM [6]: 12%
40 | O=C(c1cc2cc(F)ccc2[nH]1)N1CCOCC1 [Compound 1w] | – | 10 | –
41 | O=C(NCc1cc(O)cc(OCc2ccccc2)c1)c1cc2cc(F)ccc2[nH]1 [Compound 1dddd] | – | – | inhibition at 10 µM [5]: 16%
42 | O=C(NCc1ccc(Cl)cc1)c1cc2cc(F)ccc2[nH]1 [Compound 1rrr] | – | 15 | –
43 | O=C(NCc1cccc(O)c1)c1cc2cc(F)ccc2[nH]1 [Compound 1a] | – | – | IC50 [4]: 35 ± 0.59 µM; toxicity in mice (weight loss), MTD study [8]: less toxic in mice than compound 2k from Example 4; IC50 ([7]; column head: Src at 100 μM, read-out: Src IC50): 40 µM
44 | O=C(NCc1cc(OCc2ccccc2)cc(OCc2ccccc2)c1)c1cc2cc(F)ccc2[nH]1 [Compound 1iiii] | 12 | – | –
45 | O=C(Nc1cccc(O)c1)c1cc2ccc(O)cc2cc1O [Compound 2f] | – | – | IC50 ([7]; Example 3 hydroxynaphthalene series, 200 μM ATP, read-out: IC50): 16 µM
46 | O=C(NCc1ccc(Br)cc1)c1cc2cc(F)ccc2[nH]1 [Compound 1kkkk] | 30 | – | –
47 | O=C(N[C@@H](c1ccccc1)[C@@H](O)c1ccccc1)c1cc2cc(F)ccc2[nH]1 [Compound 1dd] | 41 | – | IC50 [4]: 33 ± 0.78 µM
48 | Cc1ccccc1CNC(=O)c1cc2cc(F)ccc2[nH]1 [Compound 1ffff] | 12 | – | –
49 | O=C(NCc1ccc(O)c(O)c1)c1cc2cc(F)ccc2[nH]1 [Compound 1gggg] | 25 | – | –

Continued, in another order:

Row | inhibition at 10 µM [1] [%] | inhibition at 10 µM [2] [%] | SMILES | other results
50 | 20 | – | O=C(NCc1cc(F)cc(F)c1)c1[nH]c2ccc(F)cc2c1-c1ccccc1 [Compound 2y] | –
51 | 23 | – | CCCOc1ccc(NC(=O)c2[nH]c3ccc(F)cc3c2-c2ccccc2)cc1CO [Compound 2d] | –
52 | 18 | 11 | COc1ccc(NC(=O)c2[nH]c3ccc(F)cc3c2-c2ccccc2)cc1CO [Compound 2f] | IC50 [4]: 13 ± 0.46 µM
53 | – | 24 | O=C(NCc1ccc([N+](=O)[O-])cc1)c1[nH]c2ccc(F)cc2c1-c1ccccc1 [Compound 2kk] | –
54 | 19 | 13 | O=C(NCC1(O)CCCCC1)c1[nH]c2ccc(F)cc2c1-c1ccccc1 [Compound 2b] | –
55 | 10 | – | O=C(Nc1ccc(OCc2ccccc2)c(CO)c1)c1[nH]c2ccc(F)cc2c1-c1ccccc1 [Compound 2e] | –
56 | 10 | – | O=C(NCc1cc(Br)ccc1F)c1[nH]c2ccc(F)cc2c1-c1ccccc1 [Compound 2ll] | –
57 | 20 | – | O=C(NCc1ccc(C(F)(F)F)cc1)c1[nH]c2ccc(F)cc2c1-c1ccccc1 [Compound 2j] | –
58 | 12 | – | O=C(NCc1ccc(F)cc1C(F)(F)F)c1[nH]c2ccc(F)cc2c1-c1ccccc1 [Compound 2hh] | –
59 | 33 | 11 | O=C(NCc1ccccc1F)c1[nH]c2ccc(F)cc2c1-c1ccccc1 [Compound 2s] | inhibition at 10 µM [6]: 10%; IC50 [4]: 26 ± 0.34 µM
60 | – | 12 | O=C(NCc1ccc(F)cc1Cl)c1[nH]c2ccc(F)cc2c1-c1ccccc1 [Compound 2o] | –
